Data reported in paper PMC12260505, “First-in-Human Phase I/IIa Study of the First-in-Class CDK2/4/6 Inhibitor PF-06873600 Alone or with Endocrine Therapy in Patients with Breast Cancer” (Clinical Cancer Research, 2025).
Where “and” joins values, the source holds several entries; their conditions need not be identical. Identical values can stand only once.

Experiment: Plasma PF-06873600 pharmacokinetics (LC/MS-MS, noncompartmental analysis)
Format: in vivo, human
Experimental: Plasma samples were analyzed for PF-06873600 concentrations at Q2 Solutions using a validated analytic assay in compliance with Pfizer standard operating procedures. PF-06873600 samples were assayed by a validated LC/MS-MS using positive ionization mode. PK parameters were calculated using noncompartmental analysis of plasma concentration–time data.

[1] = 25 mg twice daily, after multiple dosing
[2] = Cycle 1 Day 1, Part 1 25 mg BID IR (pooled cohorts)
[3] = Cycle 1 Day 1, Part 1A 1 mg BID IR
[4] = Cycle 1 Day 1, Part 1A 2 mg BID IR
[5] = Cycle 1 Day 1, Part 1A 5 mg BID IR
[6] = Cycle 1 Day 1, Part 1A 10 mg BID IR
[7] = Cycle 1 Day 1, Part 1A 25 mg BID Biomarker IR
[8] = Cycle 1 Day 1, Part 1A 25 mg BID IR
[9] = Cycle 1 Day 1, Part 1A 35 mg BID IR
[10] = Cycle 1 Day 1, Part 1A 35 mg BID Intm 5/2 IR
[11] = Cycle 1 Day 1, Part 1A 50 mg BID IR
[12] = Cycle 1 Day 1, Part 1B 25 mg BID +Ful IR
[13] = Cycle 1 Day 1, Part 1B 25 mg BID +Let IR
[14] = Cycle 1 Day 1, Part 1C MR 20 mg lead-in IR 25 mg BID
[15] = Cycle 1 Day 1, Part 1C MR 30 mg BID long duration
[16] = Cycle 1 Day 15, Part 1 25 mg BID IR (pooled cohorts)
[17] = Cycle 1 Day 15, Part 1A 1 mg BID IR

With `C[C@@]1(O)CCC[C@H]1n1c(=O)c(C(F)F)cc2cnc(NC3CCN(S(C)(=O)=O)CC3)nc21` [PF-06873600] the “Geometric mean coefficient of variation percentage, AUCtau” value [1] was 45%, the “Geometric mean coefficient of variation percentage, Cmax” value [1] was 43% and the “Geometric mean coefficient of variation percentage, Cmin” value [1] was 119%. For the same compound, the “Geometric mean coefficient of variation percentage, AUCinf” value (25 mg twice daily, single dose) was 58%, the “Geometric mean coefficient of variation percentage, Cmax” value (25 mg twice daily, single dose) was 56% and the “AUCinf, geometric mean (%CV)” value [2] was 1019 (58) ng.h/mL. The “AUClast, geometric mean (%CV)” value [2] was 912.4 (52) ng.h/mL, the “CL/F, geometric mean (%CV)” value [2] was 24.55 (58) L/h and the Cmax, geometric mean (%CV) [2] was 194 ng/mL. For the same compound, the “Tmax, median (range)” value [2] was 2.00 h, the “Vz/F, geometric mean (%CV)” value [2] was 85.26 (52) L and the “t1/2, arithmetic mean±standard deviation” value [2] was 2.444 ± 0.4523 h. For the same compound, the “AUCinf, individual value(s)” value [3] was 21.0 ng·h/mL, the “AUClast, individual value(s)” value [3] was 18.3 ng·h/mL and the “CL/F, individual value(s)” value [3] was 47.6 L/h. For the same compound, the Cmax, individual value(s) [3] was 5.39 ng/mL, the “Tmax, median (range)” value [3] was 2.17 h and the “Vz/F, individual value(s)” value [3] was 111 L. The “t1/2, individual value(s)” value [3] was 5800 s, the “AUCinf, individual value(s)” value [4] was 45.2 ng·h/mL and the “AUClast, individual value(s)” value [4] was 39.2 ng·h/mL and 58.3 ng·h/mL. The “CL/F, individual value(s)” value [4] was 44.2 L/h, the “Tmax, median (range)” value [4] was 1.25 h and the “Vz/F, individual value(s)” value [4] was 116 L. For the same compound, the “t1/2, individual value(s)” value [4] was 6550 s, the “AUCinf, individual value(s)” value [5] was 101 ng·h/mL and the “AUClast, individual value(s)” value [5] was 96.6 ng·h/mL and 442 ng·h/mL. The “CL/F, individual value(s)” value [5] was 49.7 L/h, the “Tmax, median (range)” value [5] was 2.02 h and the “Vz/F, individual value(s)” value [5] was 141 L. The “t1/2, individual value(s)” value [5] was 7060 s, the “AUCinf, geometric mean (%CV)” value [6] was 648.4 (60) ng.h/mL and the “AUClast, geometric mean (%CV)” value [6] was 599.4 (53) ng.h/mL. The “CL/F, geometric mean (%CV)” value [6] was 15.43 (60) L/h, the Cmax, geometric mean (%CV) [6] was 164 ng/mL and the “Tmax, median (range)” value [6] was 0.983 h. The “Vz/F, geometric mean (%CV)” value [6] was 55.32 (28) L, the “t1/2, arithmetic mean±standard deviation” value [6] was 2.567 h and the “AUCinf, geometric mean (%CV)” value [7] was 892.6 (73) ng.h/mL. The “AUClast, geometric mean (%CV)” value [7] was 787.9 (59) ng.h/mL, the “CL/F, geometric mean (%CV)” value [7] was 28.04 (73) L/h and the “Tmax, median (range)” value [7] was 1.90 h. The “Vz/F, geometric mean (%CV)” value [7] was 97.32 (56) L, the “t1/2, arithmetic mean±standard deviation” value [7] was 2.446 h and the “AUCinf, geometric mean (%CV)” value [8] was 1492 (20) ng.h/mL. The “AUClast, geometric mean (%CV)” value [8] was 1295 (25) ng.h/mL, the “CL/F, geometric mean (%CV)” value [8] was 16.78 (20) L/h and the Cmax, geometric mean (%CV) [8] was 244 ng/mL. The “Tmax, median (range)” value [8] was 2.17 h, the “Vz/F, geometric mean (%CV)” value [8] was 61.33 (20) L and the “t1/2, arithmetic mean±standard deviation” value [8] was 2.540 h. The “AUCinf, individual value(s)” value [9] was 2010 ng·h/mL and 3400 ng·h/mL, the “AUClast, geometric mean (%CV)” value [9] was 2510 (25) ng.h/mL and the “CL/F, individual value(s)” value [9] was 10.3 L/h and 17.4 L/h. For the same compound, the Cmax, geometric mean (%CV) [9] was 388 ng/mL, the “Tmax, median (range)” value [9] was 3.64 h and the “Vz/F, individual value(s)” value [9] was 55.5 L and 60.0 L. The “t1/2, individual value(s)” value [9] was 8600 s and 13500 s, the “AUCinf, geometric mean (%CV)” value [10] was 1614 (48) ng.h/mL and the “AUClast, geometric mean (%CV)” value [10] was 1395 (38) ng.h/mL. For the same compound, the “CL/F, geometric mean (%CV)” value [10] was 21.70 (48) L/h, the Cmax, geometric mean (%CV) [10] was 276 ng/mL and the “Tmax, median (range)” value [10] was 2.02 h. For the same compound, the “Vz/F, geometric mean (%CV)” value [10] was 86.06 (37) L, the “t1/2, arithmetic mean±standard deviation” value [10] was 2.809 h and the “AUCinf, geometric mean (%CV)” value [11] was 1875 (41) ng.h/mL. For the same compound, the “AUClast, geometric mean (%CV)” value [11] was 1976 (49) ng.h/mL, the “CL/F, geometric mean (%CV)” value [11] was 26.63 (41) L/h and the Cmax, geometric mean (%CV) [11] was 394 ng/mL. The “Tmax, median (range)” value [11] was 3.49 h, the “Vz/F, geometric mean (%CV)” value [11] was 79.74 (15) L and the “t1/2, arithmetic mean±standard deviation” value [11] was 2.163 h. The “AUCinf, geometric mean (%CV)” value [12] was 884.3 (34) ng.h/mL, the “AUClast, geometric mean (%CV)” value [12] was 1034 (43) ng.h/mL and the “CL/F, geometric mean (%CV)” value [12] was 28.26 (34) L/h. For the same compound, the Cmax, geometric mean (%CV) [12] was 225 ng/mL, the “Tmax, median (range)” value [12] was 1.97 h and the “Vz/F, geometric mean (%CV)” value [12] was 83.54 (17) L. For the same compound, the “t1/2, arithmetic mean±standard deviation” value [12] was 2.128 h, the “AUCinf, geometric mean (%CV)” value [13] was 1142 (50) ng.h/mL and the “AUClast, geometric mean (%CV)” value [13] was 1040 (46) ng.h/mL. For the same compound, the “CL/F, geometric mean (%CV)” value [13] was 21.87 (50) L/h, the Cmax, geometric mean (%CV) [13] was 228 ng/mL and the “Tmax, median (range)” value [13] was 2.52 h. For the same compound, the “Vz/F, geometric mean (%CV)” value [13] was 72.18 (37) L, the “t1/2, arithmetic mean±standard deviation” value [13] was 2.428 h and the “AUCinf, geometric mean (%CV)” value [14] was 593.3 (17) ng.h/mL. The “AUClast, geometric mean (%CV)” value [14] was 596.8 (33) ng.h/mL, the “CL/F, geometric mean (%CV)” value [14] was 42.14 (17) L/h and the Cmax, geometric mean (%CV) [14] was 122 ng/mL. The “Tmax, median (range)” value [14] was 2.00 h, the “Vz/F, geometric mean (%CV)” value [14] was 132.2 (52) L and the “t1/2, arithmetic mean±standard deviation” value [14] was 2.250 h. The “AUClast, geometric mean (%CV)” value [15] was 192.0 (201) ng.h/mL, the Cmax, geometric mean (%CV) [15] was 43.5 ng/mL and the “Tmax, median (range)” value [15] was 10.0 (5.35–10.2) h. The “AUCtau, geometric mean (%CV)” value [16] was 1351 (45) ng.h/mL, the “CL/F, geometric mean (%CV)” value [16] was 18.53 (45) L/h and the “Cmax, geometric mean (%CV)” value [16] was 315.5 (43) ng/mL. The “Cmin, geometric mean (%CV)” value [16] was 30.23 (119) ng/mL, the “Rac (observed accumulation ratio based on AUC), geometric mean (%CV)” value [16] was 1.135 (34) and the “Tmax, median (range)” value [16] was 1.94 h. The “Vz/F, geometric mean (%CV)” value [16] was 75.77 (43) L, the “t1/2, arithmetic mean±standard deviation” value [16] was 2.765 h and the “AUCtau, individual value(s)” value [17] was 25.3 ng·h/mL. For the same compound, the “CL/F, individual value(s)” value [17] was 39.5 L/h.
